According to ChEMBL document CHEMBL5055672, “Design, Synthesis, Biological Evaluation, and Computational Studies of Novel Fluorinated Candidates as PI3K Inhibitors: Targeting Fluorophilic Binding Sites” (J Med Chem, 2021):

How the values were obtained:
[1] = system: SF-268; experiment: Cytotoxicity against human SF-268 cells assessed as growth inhibition at 10 uM after 48 hrs by sulforhodamine B assay; format: functional; conditions: read-out: GI
[2] = system: NCI/ADR-RES; experiment: Cytotoxicity against human NCI-ADR-RES cells assessed as growth inhibition at 10 uM after 48 hrs by sulforhodamine B assay; format: functional; conditions: read-out: GI
[3] = system: CAKI-1; experiment: Cytotoxicity against human CAKI-1 cells assessed as growth inhibition at 10 uM after 48 hrs by sulforhodamine B assay; format: functional; conditions: read-out: GI
[4] = system: SN12C; experiment: Cytotoxicity against human SN12C cells assessed as growth inhibition at 10 uM after 48 hrs by sulforhodamine B assay; format: functional; conditions: read-out: GI
[5] = system: UO-31; experiment: Cytotoxicity against human UO-31 cells assessed as growth inhibition at 10 uM after 48 hrs by sulforhodamine B assay; format: functional; conditions: read-out: GI
[6] = system: MCF7; experiment: Cytotoxicity against human MCF7 cells assessed as growth inhibition at 10 uM after 48 hrs by sulforhodamine B assay; format: functional; conditions: read-out: GI
[7] = system: T47D; experiment: Cytotoxicity against human T47D cells assessed as growth inhibition at 10 uM after 48 hrs by sulforhodamine B assay; format: functional; conditions: read-out: GI
[8] = Selectivity index, ratio of IC50 for human MCF-10A cells to IC50 for human MCF7 cells; format: toxicity; conditions: MCF-10A cells versus MCF7 cells, read-out: Ratio IC50
[9] = system: MCF7; experiment: Induction of cell cycle arrest in human MCF7 cells assessed as accumulation of cells at G2/M phase at IC50 concentration by Propidium iodide staining based flow cytometric analysis (reference value: 10.94%); format: functional
[10] = system: MCF7; experiment: Induction of cell cycle arrest in human MCF7 cells assessed as accumulation of cells at S phase at IC50 concentration by Propidium iodide staining based flow cytometric analysis (reference value: 27.61%); format: functional
[11] = system: MCF7; experiment: Induction of apoptosis in human MCF7 cells assessed as early apoptotic cells at 13.30 uM after 48 hrs by annexin V-FITC/propidium iodide staining based flow cytometric analysis (reference value: 0.36%); format: functional; conditions: dose 13.3 µM
[12] = molecular target: T1, Phosphatidylinositol 4,5-bisphosphate 3-kinase catalytic subunit delta isoform (Homo sapiens, UniProt O00329); experiment: Inhibition of PI3Kdelta (unknown origin) using PIP2 as substrate preincubated for 10 mins followed by substrate addition and measured after 1 hr by ELISA
T1 sequence (O00329 whole entry): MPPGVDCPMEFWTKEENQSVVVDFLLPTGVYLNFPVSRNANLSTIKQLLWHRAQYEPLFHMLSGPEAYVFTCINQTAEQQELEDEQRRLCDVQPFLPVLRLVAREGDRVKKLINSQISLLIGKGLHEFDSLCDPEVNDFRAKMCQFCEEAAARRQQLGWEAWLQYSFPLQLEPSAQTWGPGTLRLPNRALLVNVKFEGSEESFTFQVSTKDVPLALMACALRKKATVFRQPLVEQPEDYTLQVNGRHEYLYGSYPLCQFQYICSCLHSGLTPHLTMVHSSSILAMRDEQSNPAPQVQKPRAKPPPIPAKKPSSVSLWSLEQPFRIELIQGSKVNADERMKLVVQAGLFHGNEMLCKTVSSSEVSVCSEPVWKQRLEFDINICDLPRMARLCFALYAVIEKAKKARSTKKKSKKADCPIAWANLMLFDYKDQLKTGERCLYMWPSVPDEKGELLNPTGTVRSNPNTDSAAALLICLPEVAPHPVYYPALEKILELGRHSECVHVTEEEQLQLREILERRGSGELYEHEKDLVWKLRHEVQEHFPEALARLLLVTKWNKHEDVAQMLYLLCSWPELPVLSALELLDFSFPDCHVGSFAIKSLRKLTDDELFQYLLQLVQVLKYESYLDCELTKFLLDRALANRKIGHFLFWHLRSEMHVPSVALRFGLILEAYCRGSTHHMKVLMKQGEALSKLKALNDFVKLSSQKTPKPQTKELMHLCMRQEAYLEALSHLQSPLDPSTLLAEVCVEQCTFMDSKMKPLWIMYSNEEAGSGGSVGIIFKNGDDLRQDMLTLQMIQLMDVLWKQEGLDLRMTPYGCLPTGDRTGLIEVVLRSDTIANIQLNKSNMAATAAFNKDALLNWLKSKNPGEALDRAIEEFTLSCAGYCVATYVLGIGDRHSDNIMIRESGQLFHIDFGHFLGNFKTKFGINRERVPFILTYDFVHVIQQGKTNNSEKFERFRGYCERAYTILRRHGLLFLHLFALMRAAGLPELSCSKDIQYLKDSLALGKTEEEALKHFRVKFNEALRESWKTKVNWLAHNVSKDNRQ

For COC(=O)/C=C1\S/C(=N\N=C\c2ccc(OCC(F)(F)F)cc2)N(c2ccccc2)C1=O, the inhibition of growth at 10 µM [1] was 11.8%, the inhibition of growth at 10 µM [2] was 24.6% and the inhibition of growth at 10 µM [3] was 26.6%. It also gave an inhibition of growth at 10 µM [4] of 28.6%, an inhibition of growth at 10 µM [5] of 24.8% and an inhibition of growth at 10 µM [6] of 33.2%. For the same molecule, the inhibition of growth at 10 µM [7] was 14.5%, the selectivity ratio [8] was 1.81 and the Activity [9] was 8.51%. It also gave an Activity [10] of 36.02%, an Activity [11] of 2.71% and an IC50 [12] of 121 µM.
